Results reported in patent publication US20040097573A1, “Use of a COX-2 inhibitor and a NK-1 receptor antagonist for treating inflammation” (priority 1998, published 2004).

Legend:
[1] = test system: cisplatin-induced emesis in ferrets; experiment: Ferret emesis (Assay 3); assay type: in vivo; details: p.o.
Experimental: ASSAY 3: Ferret Emesis Individually housed male ferrets (1.0-2.5 kg) are dosed orally by gavage with test compound. Ten minutes later they are fed with approximately 100 g of tinned cat food. At 60 minutes following oral dosing, cisplatin (10 mg/kg) is given i.v. via a jugular vein catheter inserted under a brief period of halothane anaesthesia. The catheter is then removed, the jugular vein ligated and the skin incision closed. The ferrets recover rapidly from the anaesthetic and are mobile within 10-20 minutes. The animals are observed continuously during recovery from the anaesthetic and for 4 hours following the cisplatin injection, after which time the animals are killed humanely. The numbers of retches and vomits occurring during the 4 hours after cisplatin administration are recorded by trained observers.

[2] = test system: foot tapping in gerbils induced by central infusion of NK-1 receptor agonists such as GR73632; experiment: Gerbil foot-tapping (Assay 2); assay type: in vivo, Mongolian gerbils; details: i.v.
Text: ASSAY 2: Gerbil Foot-Tapping
CNS-penetrant NK-1 receptor antagonists for use in the present invention can be identified by their ability to inhibit foot tapping in gerbils induced by central infusion of NK-1 receptor agonists such as GR73632, based on the method of Rupniak & Williams, Eur. J. Pharmacol., 1994, 265, 179.
Male or female Mongolian gerbils (35-70 g) are anaesthetised by inhalation of an isoflurane/oxygen mixture to permit exposure of the jugular vein in order to permit administration of test compounds or vehicle in an injection volume of approximately 5 ml/kg i.v. Alternatively, test compounds may be administered orally or by subcutaneous or intraperitoneal routes. A skin incision is then made in the midline of the scalp to expose the skull. The selective NK-1 receptor agonist (e.g. GR73632 (d Ala[L-Pro^9,Me-Leu^10]-substance P-(7-11)) is infused directly into the cerebral ventricles (e.g. 3 pmol in 5 μl i.c.v., depending on test substance) by vertical insertion of a cuffed 27 gauge needle to a depth of 4.5 mm below bregma. The scalp incision is closed and the animal allowed to recover from anaesthesia in a clear perspex observation box (approximately 25 cm×20 cm×20 cm). The duration and/or intensity of hind foot tapping is then recorded continuously for approximately 5 minutes.

With `C[C@@H](O[C@H]1OCCN(Cc2n[nH]c(=O)[nH]2)[C@H]1c1ccc(F)cc1)c1cc(C(F)(F)F)cc(C(F)(F)F)c1` [2-(R)-(1-(R)-(3,5-bis(trifluoromethyl)phenyl)-ethoxy)-3-(S)-(4-fluorophenyl)-4-(3-(5-oxo-1H,4H-1,2,4-triazolo)methyl)-morpholine] the “ferret emesis ID90” value [1] was “ID90 < 3 mg/kg p.o”, the “gerbil foot-tapping (5 mins.) ID50” value [2] was “ID50 = 0.36 mg/kg i.v” and the “gerbil foot-tapping (24 hrs.) ID50” value [2] was “ID50 = 0.33 mg/kg i.v”.

`C[C@@H](O[C@H]1OCCN(Cc2nn[nH]c2CN(C)C)[C@H]1c1ccccc1)c1cc(C(F)(F)F)cc(C(F)(F)F)c1` [2-(R)-(1-(R)-(3,5-bis(trifluoromethyl)phenyl)ethoxy)-4-(5-(N,N-dimethylamino)methyl-1,2,3-triazol-4-yl)methyl-3-(S)-phenylmorpholine] was tested, and the “gerbil foot-tapping (5 mins.) ID50” value [2] was “ID50 = 0.12 mg/kg i.v” and the “gerbil foot-tapping (24 hrs.) ID50” value [2] was “ID50 = 0.17 mg/kg i.v”.
